From patent US7601716B2, “Pyridopyrazines and derivatives thereof as ALK and c-Met inhibitors” (Cephalon, Inc., priority 2006, dated 2009)

Molecular target: baculovirus-expressed ALK (Homo sapiens, UniProt Q9UM73)
Test: ALK Kinase Assay (ELISA/TRF, PLC-γ substrate); further: 1 µM ATP (Km level)
Format: biochemical
Settings: read-out: ALK Kinase Inhibition (IC50)
Method: Example compounds were tested for their ability to inhibit the kinase activity of baculovirus-expressed ALK using a modification of the ELISA protocol reported for trkA in Angeles, T. S. et al., Anal. Biochem. 1996, 236, 49-55, which is incorporated herein by reference in its entirety. Phosphorylation of the substrate, phospholipase C-gamma (PLC-γ) generated as a fusion protein with glutathione S-transferase (GST) as reported in Rotin, D. et al., EMBO J. 1992, 11, 559-567, which is incorporated herein by reference in its entirety, was detected with a europium-labeled anti-phosphotyrosine antibody and measured by time-resolved fluorescence (TRF). Briefly, each 96-well plate was coated with 100 μL/well of 10 μg/mL substrate (phospholipase C-γ) in Tris-buffered saline (TBS). […] The reaction was initiated by adding enzyme (30 ng/ml ALK) and was allowed to proceed at 37° C. for 15 minutes. Detection of the phosphorylated product was performed by adding 100 μl/well of Eu-N1 labeled PT66 antibody (Perkin Elmer # AD0041). Incubation at 37° C. then proceeded for one (1) hour, followed by addition of 100 μL enhancement solution (Wallac #1244-105). The plate was gently agitated and after thirty minutes, the fluorescence of the resulting solution was measured using the EnVision 2100 (or 2102) multilabel plate reader (Perkin Elmer).
Data analysis was performed using ActivityBase (IDBS, Guilford, UK). IC50 values were calculated by plotting percent inhibition versus log10 of the concentration of compound and fitting to the nonlinear regression sigmoidal dose-response (variable slope) equation in XLFit (IDBS, Guilford, UK).

Chain of baculovirus-expressed ALK (Q9UM73 19-1620): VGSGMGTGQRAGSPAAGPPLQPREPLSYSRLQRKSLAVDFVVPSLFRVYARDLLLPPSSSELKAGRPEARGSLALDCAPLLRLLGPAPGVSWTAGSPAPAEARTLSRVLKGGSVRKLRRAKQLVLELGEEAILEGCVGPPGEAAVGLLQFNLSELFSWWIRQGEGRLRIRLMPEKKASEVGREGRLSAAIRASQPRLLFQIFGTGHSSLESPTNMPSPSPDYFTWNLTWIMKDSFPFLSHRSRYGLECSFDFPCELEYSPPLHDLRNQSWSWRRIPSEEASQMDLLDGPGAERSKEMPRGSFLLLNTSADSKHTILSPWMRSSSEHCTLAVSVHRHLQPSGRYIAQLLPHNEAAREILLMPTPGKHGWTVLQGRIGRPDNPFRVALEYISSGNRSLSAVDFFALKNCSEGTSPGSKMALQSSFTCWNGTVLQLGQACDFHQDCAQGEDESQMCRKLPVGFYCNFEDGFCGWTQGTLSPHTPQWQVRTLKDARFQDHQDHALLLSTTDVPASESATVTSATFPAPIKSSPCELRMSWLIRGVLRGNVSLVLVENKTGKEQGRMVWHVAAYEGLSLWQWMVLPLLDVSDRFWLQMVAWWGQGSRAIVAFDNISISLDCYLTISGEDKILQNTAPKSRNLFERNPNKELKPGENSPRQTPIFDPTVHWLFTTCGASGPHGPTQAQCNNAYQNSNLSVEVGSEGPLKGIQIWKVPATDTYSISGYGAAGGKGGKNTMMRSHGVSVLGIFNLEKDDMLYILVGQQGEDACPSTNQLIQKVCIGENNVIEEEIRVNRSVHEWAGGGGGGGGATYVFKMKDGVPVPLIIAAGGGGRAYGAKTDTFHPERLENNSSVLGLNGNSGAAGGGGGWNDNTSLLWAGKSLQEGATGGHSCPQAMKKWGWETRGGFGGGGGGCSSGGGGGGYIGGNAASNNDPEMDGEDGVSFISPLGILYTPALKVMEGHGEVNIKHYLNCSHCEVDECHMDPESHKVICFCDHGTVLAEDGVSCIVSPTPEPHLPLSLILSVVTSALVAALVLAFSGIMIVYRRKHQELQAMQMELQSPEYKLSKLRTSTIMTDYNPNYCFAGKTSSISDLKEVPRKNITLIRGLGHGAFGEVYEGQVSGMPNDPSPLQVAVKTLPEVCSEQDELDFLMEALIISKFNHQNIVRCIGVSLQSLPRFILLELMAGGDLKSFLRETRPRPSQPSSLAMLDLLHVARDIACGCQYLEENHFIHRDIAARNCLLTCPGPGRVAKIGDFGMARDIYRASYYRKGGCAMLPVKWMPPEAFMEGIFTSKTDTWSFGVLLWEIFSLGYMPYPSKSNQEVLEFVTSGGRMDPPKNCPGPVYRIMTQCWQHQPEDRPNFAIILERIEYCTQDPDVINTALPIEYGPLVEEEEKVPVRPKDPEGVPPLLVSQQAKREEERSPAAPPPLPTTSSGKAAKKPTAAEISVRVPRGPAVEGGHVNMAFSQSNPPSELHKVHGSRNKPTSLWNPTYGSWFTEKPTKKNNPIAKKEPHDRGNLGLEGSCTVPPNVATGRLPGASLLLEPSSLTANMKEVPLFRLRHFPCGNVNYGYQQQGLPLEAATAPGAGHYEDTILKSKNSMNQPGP

IC50, 1000 to 10000 nM:
O=C(NCc1cccc(Cl)c1)c1cccc(-c2cnc3c(c2)N(Cc2cc(Cl)ccc2C(F)(F)F)CCN3)c1 [Example 350, N-(3-Chlorobenzyl)-3-{1-[5-Chloro-2-(trifluoromethyl)benzyl]-1,2,3,4-tetrahydropyrido[2,3-b]pyrazin-7-yl}benzamide]

IC50, 100 to 1000 nM:
O=C(c1ccc(-c2cnc3c(c2)N(Cc2cc(Cl)ccc2C(F)(F)F)CCN3)cc1)N1CCN(CCc2ccccc2)CC1 [Example 424, (4-{1-[5-Chloro-2-(trifluoromethyl)benzyl]-1,2,3,4-tetrahydropyrido[2,3-b]pyrazin-7-yl}phenyl)-(4-phenethylpiperazin-1-yl)methanone]
O=C(c1cccc(-c2cnc3c(c2)N(Cc2cc(Cl)ccc2C(F)(F)F)CCN3)c1)N1CCC(c2noc3cc(F)ccc23)CC1 [Example 325, (3-{1-[5-Chloro-2-(trifluoromethyl)benzyl]-1,2,3,4-tetrahydropyrido[2,3-b]pyrazin-7-yl}phenyl)-[4-(6-fluorobenzo[d]isoxazol-3-yl)piperidin-1-yl]methanone]
NS(=O)(=O)c1ccc(CNC(=O)c2cccc(-c3cnc4c(c3)N(Cc3cc(Cl)ccc3C(F)(F)F)CCN4)c2)cc1 [Example 363, 3-{1-[5-Chloro-2-(trifluoromethyl)benzyl]-1,2,3,4-tetrahydropyrido[2,3-b]pyrazin-7-yl}-N-(4-sulfamoylbenzyl)benzamide]
NS(=O)(=O)c1ccc(CCNC(=O)c2cccc(-c3cnc4c(c3)N(Cc3cc(Cl)ccc3C(F)(F)F)CCN4)c2)cc1 [Example 338, 3-{1-[5-Chloro-2-(trifluoromethyl)benzyl]-1,2,3,4-tetrahydropyrido[2,3-b]pyrazin-7-yl}-N-[2-(4-sulfamoylphenyl)ethyl]benzamide]
O=C(NCc1cccc(Cl)c1)c1ccc(-c2cnc3c(c2)N(Cc2cc(Cl)ccc2C(F)(F)F)CCN3)cc1 [Example 414, N-(3-Chloro-benzyl)-4-{1-[5-chloro-2-(trifluoromethyl)benzyl]-1,2,3,4-tetrahydropyrido[2,3-b]pyrazin-7-yl}benzamide]
O=C(c1ccc(-c2cnc3c(c2)N(Cc2cc(Cl)ccc2C(F)(F)F)CCN3)cc1)N1CCN(c2ncnc3ccsc23)CC1 [Example 382, (4-{1-[5-Chloro-2-(trifluoromethyl)benzyl]-1,2,3,4-tetrahydropyrido[2,3-b]pyrazin-7-yl}phenyl)-(4-thieno[3,2-d]pyrimidin-4-yl-piperazin-1-yl)methanone]
O=C(NCc1ccccc1Cl)c1cccc(-c2cnc3c(c2)N(Cc2cc(Cl)ccc2C(F)(F)F)CCN3)c1 [Example 348, N-(2-Chlorobenzyl)-3-{1-[5-Chloro-2-(trifluoromethyl)benzyl]-1,2,3,4-tetrahydropyrido[2,3-b]pyrazin-7-yl}benzamide]
O=C(NC1CCCCC1)c1cccc(-c2cnc3c(c2)N(Cc2cc(Cl)ccc2C(F)(F)F)CCN3)c1 [Example 346, 3-{1-[5-Chloro-2-(trifluoromethyl)benzyl]-1,2,3,4-tetrahydropyrido[2,3-b]pyrazin-7-yl}-N-cyclohexylbenzamide]
O=C(c1cccc(-c2cnc3c(c2)N(Cc2cc(Cl)ccc2C(F)(F)F)CCN3)c1)N1CCN(c2cccc(C(F)(F)F)c2)CC1 [Example 312, (3-{1-[5-Chloro-2-(trifluoromethyl)benzyl]-1,2,3,4-tetrahydropyrido[2,3-b]pyrazin-7-yl}phenyl)-{4-[3-(trifluoromethyl)phenyl]piperazin-1-yl}methanone]
O=C(c1ccc(-c2cnc3c(c2)N(Cc2cc(Cl)ccc2C(F)(F)F)CCN3)cc1)N1CCN(c2ccccc2Cl)CC1 [Example 426, [4-(2-Chlorophenyl)piperazin-1-yl]-(4-{1-[5-chloro-2-(trifluoromethyl)benzyl]-1,2,3,4-tetrahydropyrido[2,3-b]pyrazin-7-yl}phenyl)methanone]
O=C(c1ccc(-c2cnc3c(c2)N(Cc2cc(Cl)ccc2C(F)(F)F)CCN3)cc1)N1CCC(c2ccccc2)CC1 [Example 375, (4-{1-[5-Chloro-2-(trifluoromethyl)benzyl]-1,2,3,4-tetrahydropyrido[2,3-b]pyrazin-7-yl}phenyl)-(4-phenylpiperidin-1-yl)methanone]
O=C(NCc1ccccc1)c1ccc(-c2cnc3c(c2)N(Cc2cc(Cl)ccc2C(F)(F)F)CCN3)cc1 [Example 421, N-Benzyl-4-{1-[5-chloro-2-(trifluoromethyl)benzyl]-1,2,3,4-tetrahydropyrido[2,3-b]pyrazin-7-yl}benzamide]
O=C(NCc1ccc(Cl)cc1)c1ccc(-c2cnc3c(c2)N(Cc2cc(Cl)ccc2C(F)(F)F)CCN3)cc1 [Example 413, N-(4-Chlorobenzyl)-4-{1-[5-chloro-2-(trifluoromethyl)benzyl]-1,2,3,4-tetrahydropyrido[2,3-b]pyrazin-7-yl}benzamide]
O=C(c1ccc(-c2cnc3c(c2)N(Cc2cc(Cl)ccc2C(F)(F)F)CCN3)cc1)N1CCC2(CC1)C(=O)NCN2c1ccccc1 [Example 380, 8-(4-{1-[5-Chloro-2-(trifluoromethyl)benzyl]-1,2,3,4-tetrahydropyrido[2,3-b]pyrazin-7-yl}benzoyl)-1-phenyl-1,3,8-triaza-spiro[4.5]decan-4-one]
O=C(NC1Cc2ccccc2C1)c1ccc(-c2cnc3c(c2)N(Cc2cc(Cl)ccc2C(F)(F)F)CCN3)cc1 [Example 423, 4-{1-[5-Chloro-2-(trifluoromethyl)benzyl]-1,2,3,4-tetrahydropyrido[2,3-b]pyrazin-7-yl}-N-indan-2-ylbenzamide]
COc1ccc(CNC(=O)c2cccc(-c3cnc4c(c3)N(Cc3cc(Cl)ccc3C(F)(F)F)CCN4)c2)cc1 [Example 354, 3-{1-[5-Chloro-2-(trifluoromethyl)benzyl]-1,2,3,4-tetrahydropyrido[2,3-b]pyrazin-7-yl}-N-(4-methoxybenzyl)benzamide]
O=C(NCC1CCCO1)c1cccc(-c2cnc3c(c2)N(Cc2cc(Cl)ccc2C(F)(F)F)CCN3)c1 (centres unmarked) [Example 352, 3-{1-[5-Chloro-2-(trifluoromethyl)benzyl]-1,2,3,4-tetrahydropyrido[2,3-b]pyrazin-7-yl}-N-(tetrahydrofuran-2-ylmethyl)benzamide]
O=C(c1ccc(-c2cnc3c(c2)N(Cc2cc(Cl)ccc2C(F)(F)F)CCN3)cc1)N1CCN(c2ncccn2)CC1 [Example 369, (4-{1-[5-Chloro-2-(trifluoromethyl)benzyl]-1,2,3,4-tetrahydropyrido[2,3-b]pyrazin-7-yl}phenyl)-(4-pyrimidin-2-ylpiperazin-1-yl)methanone]
O=C(c1ccc(-c2cnc3c(c2)N(Cc2cc(Cl)ccc2C(F)(F)F)CCN3)cc1)N1CCN(c2ccccc2)CC1 [Example 368, (4-{1-[5-Chloro-2-(trifluoromethyl)benzyl]-1,2,3,4-tetrahydropyrido[2,3-b]pyrazin-7-yl}phenyl)-(4-phenylpiperazin-1-yl)methanone]
O=C(c1cccc(-c2cnc3c(c2)N(Cc2cc(Cl)ccc2C(F)(F)F)CCN3)c1)N1CCN(CCc2ccccn2)CC1 [Example 330, (3-{1-[5-Chloro-2-(trifluoromethyl)benzyl]-1,2,3,4-tetrahydropyrido[2,3-b]pyrazin-7-yl}phenyl)-[4-(2-pyridin-2-yl-ethyl)piperazin-1-yl]methanone]
O=C(c1cccc(-c2cnc3c(c2)N(Cc2cc(Cl)ccc2C(F)(F)F)CCN3)c1)N1CCN(c2ccccc2C(F)(F)F)CC1 [Example 319, (3-{1-[5-Chloro-2-(trifluoromethyl)benzyl]-1,2,3,4-tetrahydropyrido[2,3-b]pyrazin-7-yl}phenyl)-{4-[2-(trifluoromethyl)phenyl]piperazin-1-yl}methanone]
O=C(NCc1csc(-c2ccccc2)n1)c1cccc(-c2cnc3c(c2)N(Cc2cc(Cl)ccc2C(F)(F)F)CCN3)c1 [Example 340, 3-{1-[5-Chloro-2-(trifluoromethyl)benzyl]-1,2,3,4-tetrahydropyrido[2,3-b]pyrazin-7-yl}-N-(2-phenylthiazol-4-ylmethyl)benzamide]

IC50, < 100 nM:
CN1CCC(NC(=O)c2cccc(-c3cnc4c(c3)N(Cc3cc(Cl)ccc3C(F)(F)F)CCN4)c2)CC1 [Example 329, 3-{1-[5-Chloro-2-(trifluoromethyl)benzyl]-1,2,3,4-tetrahydropyrido[2,3-b]pyrazin-7-yl}-N-(1-methylpiperidin-4-yl)benzamide]
O=C(c1ccccc1)N1CCN(C(=O)c2ccc(-c3cnc4c(c3)N(Cc3cc(Cl)ccc3C(F)(F)F)CCN4)cc2)CC1 [Example 385, (4-Benzoylpiperazin-1-yl)-(4-{1-[5-chloro-2-(trifluoromethyl)benzyl]-1,2,3,4-tetrahydropyrido[2,3-b]pyrazin-7-yl}phenyl)methanone]
O=C(c1cccc(-c2cnc3c(c2)N(Cc2cc(Cl)ccc2C(F)(F)F)CCN3)c1)N1CCC[C@H]1CN1CCCC1 [Example 365, (3-{1-[5-Chloro-2-(trifluoromethyl)benzyl]-1,2,3,4-tetrahydropyrido[2,3-b]pyrazin-7-yl}phenyl)-((S)-2-pyrrolidin-1-ylmethylpyrrolidin-1-yl)methanone]
